Results from patent US10987359B2, “Oxadiazepinone derivatives and methods of treating hepatitis B infections” (priority 2016, dated 2021).

System: HBV
Experiment: HBV replication inhibition assay (BDNA assay) in HepG2.2.15 cells
Format: cell-based
Conditions: Hepatitis B virus, HepG2.2.15, HBV replication assay (BDNA assay), HepG2.2.15 cells; read-out: DNA EC50
Procedure: HBV replication inhibition by the disclosed compounds were determined in cells infected or transfected with HBV or cells with stably integrated HBV, such as HepG2.2.15 cells (Sells et al. 1987). In this example, HepG2.2.15 cells were maintained in cell culture medium containing 10% fetal bovine serum (FBS), Geneticin, L-glutamine, penicillin and streptomycin. HepG2.2.15 cells were seeded in 96-well plates at a density of 40,000 cells/well and were treated with serially diluted compounds at a final DMSO concentration of 0.5% either alone or in combination by adding drugs in a checker box format. Cells were incubated with compounds for three days, after which medium was removed and fresh medium containing compounds was added to cells and incubated for another three days. At day 6, supernatant was removed and treated with DNase at 37° C. for 60 minutes, followed by enzyme inactivation at 75° C. for 15 minutes. Encapsidated HBV DNA was released from the virions and covalently linked HBV polymerase by incubating in lysis buffer (Affymetrix QS0010) containing 2.5 μg proteinase K at 50° C. for 40 minutes. HBV DNA was denatured by addition of 0.2 M NaOH and detected using a branched DNA (BDNA) QuantiGene assay kit according to manufacturer recommendation (Affymetrix). HBV DNA levels were also quantified using qPCR, based on amplification of encapsidated HBV DNA extraction with QuickExtraction Solution (Epicentre Biotechnologies) and amplification of HBV DNA using HBV specific PCR probes that can hybridize to HBV DNA and a fluorescently labeled probe for quantitation. In addition, cell viability of HepG2.2.15 cells incubated with test compounds alone or in combination was determined by using CellTitre-Glo reagent according to the manufacturer protocol (Promega). The mean background signal from wells containing only culture medium was subtracted from all other samples, and percent inhibition at each compound concentration was calculated by normalizing to signals from HepG2.2.15 cells treated with 0.5% DMSO using equation E1. % inhibition=(DMSOave−Xi)/DMSOave×100% E1: […]
where DMSOave is the mean signal calculated from the wells that were treated with DMSO control (0% inhibition control) and Xi is the signal measured from the individual wells. EC50 values, effective concentrations that achieved 50% inhibitory effect, were determined by non-linear fitting using Graphpad Prism software (San Diego, Calif.) and equation E2: Y=Y min+(Y max−Y min)/(1+10(Log EC50−X)×HillSlope) E2: […]
where Y represents percent inhibition values and X represents the logarithm of compound concentrations.
Selected disclosed compounds were assayed in the HBV replication assay (BDNA assay), as described above, and a representative group of these active compounds is shown in Table 7. […] In Table 7, “A” represents 1<EC50≤100; “B” represents 100<EC50≤500; “C” represents 500<EC50≤1000; and “D” represents EC50>1000.

Row | SMILES | EC50 [nM]
1 | CN1OC(CO)Cn2nc3c(c2C1=O)CN(C(=O)Nc1cc(Br)cc(F)c1F)CC3 (single isomer, unassigned) [Compound 140_E1, (S*)—N-(5-bromo-2,3-difluorophenyl)-4-(hydroxymethyl)-2-methyl-1-oxo-1,4,5,8,9,11-hexahydropyrido[4′,3′:3,4]pyrazolo[5,1-d][1,2,5]oxadiazepine-10(2H)-carboxamide] | 1 to 100
2 | CN1OC(CO)Cn2nc3c(c2C1=O)CN(C(=O)Nc1cc(Br)ccc1F)CC3 (single isomer, unassigned) [Compound 141_E1, (S*)—N-(5-bromo-2-fluorophenyl)-4-(hydroxymethyl)-2-methyl-1-oxo-1,4,5,8,9,11-hexahydropyrido[4′,3′:3,4]pyrazolo[5,1-d][1,2,5]oxadiazepine-10(2H)-carboxamide] | 1 to 100
3 | Cc1c(F)ccc(NC(=O)N2CCc3nn4c(c3C2)C(=O)N(C)OC(CO)C4)c1F (single isomer, unassigned) [Compound 142_E1, (S*)—N-(2,4-difluoro-3-methylphenyl)-4-(hydroxymethyl)-2-methyl-1-oxo-1,4,5,8,9,11-hexahydropyrido[4′,3′:3,4]pyrazolo[5,1-d][1,2,5]oxadiazepine-10(2H)-carboxamide] | 1 to 100
4 | Cc1cc(NC(=O)N2CCc3nn4c(c3C2)C(=O)N(C)OC(CO)C4)c(F)cc1F (single isomer, unassigned) [Compound 143_E1, (S*)—N-(2,4-difluoro-5-methylphenyl)-4-(hydroxymethyl)-2-methyl-1-oxo-1,4,5,8,9,11-hexahydropyrido[4′,3′:3,4]pyrazolo[5,1-d][1,2,5]oxadiazepine-10(2H)-carboxamide] | 1 to 100
5 | Cc1c(F)c(F)cc(NC(=O)N2CCc3nn4c(c3C2)C(=O)N(C)OC(CO)C4)c1F (single isomer, unassigned) [Compound 144_E1, (S*)-4-(hydroxymethyl)-2-methyl-1-oxo-N-(2,4,5-trifluoro-3-methylphenyl)-1,4,5,8,9,11-hexahydropyrido[4′,3′:3,4]pyrazolo[5,1-d][1,2,5]oxadiazepine-10(2H)-carboxamide] | 1 to 100
6 | CN1OC(CO)Cn2nc3c(c2C1=O)CN(C(=O)Nc1cc(C#N)ccc1F)CC3 (single isomer, unassigned) [Compound 145_E1, (S*)—N-(5-cyano-2-fluorophenyl)-4-(hydroxymethyl)-2-methyl-1-oxo-1,4,5,8,9,11-hexahydropyrido[4′,3′:3,4]pyrazolo[5,1-d][1,2,5]oxadiazepine-10(2H)-carboxamide] | > 1000
7 | CN1OC(CO)Cn2nc3c(c2C1=O)CN(C(=O)Nc1cccc(C#N)c1F)CC3 (single isomer, unassigned) [Compound 146_E1, (S*)—N-(3-cyano-2-fluorophenyl)-4-(hydroxymethyl)-2-methyl-1-oxo-1,4,5,8,9,11-hexahydropyrido[4′,3′:3,4]pyrazolo[5,1-d][1,2,5]oxadiazepine-10(2H)-carboxamide] | 1 to 100
8 | CN1OC(CO)Cn2nc3c(c2C1=O)CN(C(=O)Nc1cc(C(F)(F)F)c(F)cc1F)CC3 (single isomer, unassigned) [Compound 147_E1, (S*)—N-(2,4-difluoro-5-(trifluoromethyl)phenyl)-4-(hydroxymethyl)-2-methyl-1-oxo-1,4,5,8,9,11-hexahydropyrido[4′,3′:3,4]pyrazolo[5,1-d][1,2,5]oxadiazepine-10(2H)-carboxamide] | 1 to 100
9 | CN1OC(CO)Cn2nc3c(c2C1=O)CN(C(=O)Nc1cc(C(F)(F)F)ccc1F)CC3 (single isomer, unassigned) [Compound 148_E1, (S*)—N-(2-fluoro-5-(trifluoromethyl)phenyl)-4-(hydroxymethyl)-2-methyl-1-oxo-1,4,5,8,9,11-hexahydropyrido[4′,3′:3,4]pyrazolo[5,1-d][1,2,5]oxadiazepine-10(2H)-carboxamide] | 100 to 500
10 | CN1OC(CO)Cn2nc3c(c2C1=O)CN(C(=O)Nc1ccc(F)c(C(F)(F)F)c1F)CC3 (single isomer, unassigned) [Compound 149_E1, (S*)—N-(2,4-difluoro-3-(trifluoromethyl)phenyl)-4-(hydroxymethyl)-2-methyl-1-oxo-1,4,5,8,9,11-hexahydropyrido[4′,3′:3,4]pyrazolo[5,1-d][1,2,5]oxadiazepine-10(2H)-carboxamide] | 1 to 100
11 | CN1OC(CO)Cn2nc3c(c2C1=O)CN(C(=O)Nc1cc(Br)ncc1F)CC3 (single isomer, unassigned) [Compound 150_E1, (S*)—N-(2-bromo-5-fluoropyridin-4-yl)-4-(hydroxymethyl)-2-methyl-1-oxo-1,4,5,8,9,11-hexahydropyrido[4′,3′:3,4]pyrazolo[5,1-d][1,2,5]oxadiazepine-10(2H)-carboxamide] | 1 to 100
12 | CN1OC(CO)Cn2nc3c(c2C1=O)CN(C(=O)Nc1cc(F)c(F)c(F)c1F)CC3 (single isomer, unassigned) [Compound 151_E1, (S*)-4-(hydroxymethyl)-2-methyl-1-oxo-N-(2,3,4,5-tetrafluorophenyl)-1,4,5,8,9,11-hexahydropyrido[4′,3′:3,4]pyrazolo[5,1-d][1,2,5]oxadiazepine-10(2H)-carboxamide] | 1 to 100
13 | C[C@@H]1Cc2nn3c(c2CN1C(=O)Nc1ccc(F)c(Cl)c1F)C(=O)N(C)OC(C(=O)N(C)CC(F)F)C3 (single isomer, unassigned) [Compound 152_D1, (4S*,9R)—N10-(3-chloro-2,4-difluorophenyl)-N4-(2,2-difluoroethyl)-N4,2,9-trimethyl-1-oxo-1,4,5,8,9,11-hexahydropyrido[4′,3′:3,4]pyrazolo[5,1-d][1,2,5]oxadiazepine-4,10(2H)-dicarboxamide] | 1 to 100
14 | CNC(=O)C1Cn2nc3c(c2C(=O)N(C)O1)CN(C(=O)Nc1ccc(F)c(C#N)c1F)[C@H](C)C3 (single isomer, unassigned) [Compound 156_D1, (4S*,9R)—N10-(3-cyano-2,4-difluorophenyl)-N4,2,9-trimethyl-1-oxo-1,4,5,8,9,11-hexahydropyrido[4′,3′:3,4]pyrazolo[5,1-d][1,2,5]oxadiazepine-4,10(2H)-dicarboxamide] | > 1000
15 | CC(=O)NCC1Cn2nc3c(c2C(=O)N(C)O1)CN(C(=O)Nc1ccc(F)c(C#N)c1F)CC3 (single isomer, unassigned) [Compound 167_E1, (S*)-4-(acetamidomethyl)-N-(3-cyano-2,4-difluorophenyl)-2-methyl-1-oxo-1,4,5,8,9,11-hexahydropyrido[4′,3′:3,4]pyrazolo[5,1-d][1,2,5]oxadiazepine-10(2H)-carboxamide] | 1 to 100
16 | CC(=O)NCC1Cn2nc3c(c2C(=O)N(C)O1)CN(C(=O)Nc1ccc(F)c(C#N)c1)CC3 (single isomer, unassigned) [Compound 168_E1, (S*)-4-(acetamidomethyl)-N-(3-cyano-4-fluorophenyl)-2-methyl-1-oxo-1,4,5,8,9,11-hexahydropyrido[4′,3′:3,4]pyrazolo[5,1-d][1,2,5]oxadiazepine-10(2H)-carboxamide] | 1 to 100
17 | CC(=O)NCC1Cn2nc3c(c2C(=O)N(C)O1)CN(C(=O)Nc1ccc(F)c(Cl)c1F)CC3 (single isomer, unassigned) [Compound 169_E1, (S*)-4-(acetamidomethyl)-N-(3-chloro-2,4-difluorophenyl)-2-methyl-1-oxo-1,4,5,8,9,11-hexahydropyrido[4′,3′:3,4]pyrazolo[5,1-d][1,2,5]oxadiazepine-10(2H)-carboxamide] | 1 to 100
18 | CC(=O)NCC1Cn2nc3c(c2C(=O)N(C)O1)CN(C(=O)Nc1ccc(F)c(Br)c1F)CC3 (single isomer, unassigned) [Compound 170_E1, (S*)-4-(acetamidomethyl)-N-(3-bromo-2,4-difluorophenyl)-2-methyl-1-oxo-1,4,5,8,9,11-hexahydropyrido[4′,3′:3,4]pyrazolo[5,1-d][1,2,5]oxadiazepine-10(2H)-carboxamide] | 1 to 100
19 | CC(=O)NCC1Cn2nc3c(c2C(=O)N(C)O1)CN(C(=O)Nc1ccc(F)c(Br)c1)CC3 (single isomer, unassigned) [Compound 171_E1, (S*)-4-(acetamidomethyl)-N-(3-bromo-4-fluorophenyl)-2-methyl-1-oxo-1,4,5,8,9,11-hexahydropyrido[4′,3′:3,4]pyrazolo[5,1-d][1,2,5]oxadiazepine-10(2H)-carboxamide] | 1 to 100
